Assay results taken from patent US20220064196A1, “EGFR Inhibitors, Compositions and Methods Thereof” (Betta Pharmaceuticals Co., Ltd., priority 2019, published 2022).
Where a name gives a salt, the structure may show the parent alone. Read-outs that look alike come from different tables or passages of the source.

Columns and labels:
EGFR L858R/T790M/C797S = EGFR L858R/T790M/C797S (Homo sapiens, UniProt P00533, C797S/L858R/T790M); experiment: Kinase assay (mobility shift), EGFR L858R/T790M/C797S; format: biochemical; details: numeric values
Sequence of EGFR L858R/T790M/C797S (P00533 25-1210 T790M/C797S/L858R): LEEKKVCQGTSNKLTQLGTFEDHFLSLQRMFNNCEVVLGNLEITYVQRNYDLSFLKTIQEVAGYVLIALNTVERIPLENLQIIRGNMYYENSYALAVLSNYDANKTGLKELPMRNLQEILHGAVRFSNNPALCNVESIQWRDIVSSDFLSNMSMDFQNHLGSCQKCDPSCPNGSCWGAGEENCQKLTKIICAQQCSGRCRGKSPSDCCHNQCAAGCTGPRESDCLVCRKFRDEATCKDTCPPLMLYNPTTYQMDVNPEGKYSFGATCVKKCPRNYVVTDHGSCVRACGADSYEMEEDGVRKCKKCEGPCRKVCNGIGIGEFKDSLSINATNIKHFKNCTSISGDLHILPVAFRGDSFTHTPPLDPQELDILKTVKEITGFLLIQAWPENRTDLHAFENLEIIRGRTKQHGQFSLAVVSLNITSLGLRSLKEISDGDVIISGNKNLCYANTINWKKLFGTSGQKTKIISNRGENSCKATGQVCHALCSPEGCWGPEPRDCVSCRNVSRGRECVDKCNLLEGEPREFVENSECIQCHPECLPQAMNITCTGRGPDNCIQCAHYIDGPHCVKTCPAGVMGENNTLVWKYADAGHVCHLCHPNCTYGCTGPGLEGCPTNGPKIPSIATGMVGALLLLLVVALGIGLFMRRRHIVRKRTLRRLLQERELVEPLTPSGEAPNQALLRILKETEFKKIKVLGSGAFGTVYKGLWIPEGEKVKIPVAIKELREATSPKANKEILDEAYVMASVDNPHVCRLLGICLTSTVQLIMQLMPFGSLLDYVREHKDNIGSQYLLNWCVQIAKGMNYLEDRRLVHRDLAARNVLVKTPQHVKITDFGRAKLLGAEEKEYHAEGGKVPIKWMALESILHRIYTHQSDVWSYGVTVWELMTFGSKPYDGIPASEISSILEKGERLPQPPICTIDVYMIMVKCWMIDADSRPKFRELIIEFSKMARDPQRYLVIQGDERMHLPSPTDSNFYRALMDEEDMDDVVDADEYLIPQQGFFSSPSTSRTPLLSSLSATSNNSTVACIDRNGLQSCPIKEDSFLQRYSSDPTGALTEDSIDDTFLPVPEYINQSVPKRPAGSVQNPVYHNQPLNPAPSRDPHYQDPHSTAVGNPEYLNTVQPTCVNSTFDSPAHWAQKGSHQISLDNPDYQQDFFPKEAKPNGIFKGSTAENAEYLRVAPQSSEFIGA
Protocol: [Worded in the source for another variant; this variant is reported under the same test.] Test 1 Kinase Assay for EGFR Del19/T790M/C797S and EGFR Wildtype
Enzyme reaction protocol are as follows:
1. Preparing 1* Kinase buffer as followed.
2. Preparing Compound Concentration Gradient: Compounds were tested at a concentration of 300 nM, diluted to 100-fold final concentration in 100% DMSO solution in 96-well plates, and compounds were diluted 3 times with Precision, 10 concentrations. Each concentration of the compound was then further diluted to a 5-fold final concentration of the intermediate dilution solution using 1* Kinase buffer.
3.5 μL of each of the prepared intermediate dilution compounds was separately added to the compound wells of the 384-well plate, and each concentration was tested for duplicate wells; 5 μL of 5% DMSO was added to the negative control wells and the positive control wells, respectively.
4. 2.5-fold final concentration of the kinase solution was prepared using 1*Kinase buffer.
5. Add 10 μL of 2.5-fold final concentration of kinase solution to the compound well and positive control well; add 10 μL of 1*Kinase buffer to the negative control well.
6. Centrifuge at 1000 rpm for 30 seconds, shake the reaction plate and incubate for 10 minutes at room temperature.
7. A mixed solution of 2.5 times the final concentration of ATP and Kinase substrate (5-FAM-EEPLYWSFPAKKK-CONH2) was prepared using 1*Kinase buffer.
8. 10 μL of a 2.5-fold final concentration of a mixed solution of ATP and a substrate was added to initiate the reaction.
9. Centrifuge the 384-well plate at 1000 rpm for 30 seconds, mix by shaking, and incubate at room temperature for the corresponding time.
10. Add 30 μL of the stop solution to stop the kinase reaction, centrifuge at 1000 rpm for 30 seconds, and mix by shaking.
11. Read the conversion rate with Caliper EZ Reader.
Convert conversion values to inhibition values:
Percent inhibition 32 (max-conversion)/(max-min)*100.
“max” stands for the mean value of the positive control well ratio; “min” stands for the mean value of the negative control well.
Fit the data in log(inhibitor) vs. response Variable slope of GraphPad Prism 5 to obtain IC50 values.
Equation used is: Y=Bottom+(Top-Bottom)/(1+(IC50/X)^HillSlope)

Ba/F3-Del19/T790M/C797S = Ba/F3-Del19/T790M/C797S (Homo sapiens, UniProt P00533, T790M/C797S, cells depend on it, form not given); experiment: Ba/F3-Del19/T790M/C797S cells proliferation assay (CellTiter Glo); format: cell-based; details: cell proliferation, 72 h, read-out: Ba/F3-Del19/T790M/C797S IC50
Sequence of Ba/F3-Del19/T790M/C797S (P00533 with tags, fused parts or gaps DEL746-750/T790M/C797S, form open): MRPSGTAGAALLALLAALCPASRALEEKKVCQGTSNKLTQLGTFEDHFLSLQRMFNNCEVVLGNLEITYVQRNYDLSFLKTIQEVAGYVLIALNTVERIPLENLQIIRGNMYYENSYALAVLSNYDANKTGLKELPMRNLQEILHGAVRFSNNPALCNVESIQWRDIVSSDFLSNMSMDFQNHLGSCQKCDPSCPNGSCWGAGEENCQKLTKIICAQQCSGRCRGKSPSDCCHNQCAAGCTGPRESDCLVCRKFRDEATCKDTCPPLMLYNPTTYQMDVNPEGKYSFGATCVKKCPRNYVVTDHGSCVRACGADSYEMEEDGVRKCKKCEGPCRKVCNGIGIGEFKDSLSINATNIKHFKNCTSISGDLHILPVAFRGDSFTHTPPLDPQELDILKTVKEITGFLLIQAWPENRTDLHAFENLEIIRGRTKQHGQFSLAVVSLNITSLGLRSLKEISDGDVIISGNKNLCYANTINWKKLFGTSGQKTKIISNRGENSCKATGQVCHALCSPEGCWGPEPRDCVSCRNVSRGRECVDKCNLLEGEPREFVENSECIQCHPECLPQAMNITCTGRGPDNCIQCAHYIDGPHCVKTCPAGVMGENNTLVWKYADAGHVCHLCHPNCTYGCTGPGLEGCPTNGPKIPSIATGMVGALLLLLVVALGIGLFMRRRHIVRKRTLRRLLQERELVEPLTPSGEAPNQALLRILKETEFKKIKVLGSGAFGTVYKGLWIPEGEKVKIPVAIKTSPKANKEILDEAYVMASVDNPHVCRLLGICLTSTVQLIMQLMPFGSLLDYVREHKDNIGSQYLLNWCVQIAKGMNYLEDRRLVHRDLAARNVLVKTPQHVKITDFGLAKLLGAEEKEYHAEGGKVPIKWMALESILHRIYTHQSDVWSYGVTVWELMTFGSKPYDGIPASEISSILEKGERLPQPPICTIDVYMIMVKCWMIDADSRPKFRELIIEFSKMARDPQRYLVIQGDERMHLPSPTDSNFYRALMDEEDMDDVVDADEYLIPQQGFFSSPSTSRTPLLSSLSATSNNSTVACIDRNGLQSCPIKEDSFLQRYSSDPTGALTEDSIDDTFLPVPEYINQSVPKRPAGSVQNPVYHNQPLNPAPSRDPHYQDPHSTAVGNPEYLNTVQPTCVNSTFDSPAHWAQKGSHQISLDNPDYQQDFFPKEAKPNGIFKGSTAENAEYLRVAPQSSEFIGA
Protocol: (§1) a) The medium was preheated in a 37°0 C. water bath in advance.
(§2) b) Remove the cryogenic vials from the liquid nitrogen tank, quickly put it into a 37° C. water bath, and completely melt it in 1 min.
(§3) c) Transfer the cell suspension to a 15 mL centrifuge tube containing 8 mL medium, centrifuge 1000 rpm, 5 min.
(§4) d) Discard the supernatant, resuspend the cells in 1 mL medium, and transfer to a 75 cm^2 flask containing 15 mL medium, culture the cells in an incubator at 37° C., 5% CO2.
(§5) a) The medium was preheated in a 37° C. water bath in advance.
(§6) b) Collect cell to a 15 mL centrifuged tube, centrifuge at 1000 rpm for 5 min. Discard the supernatant, count, and make the cell density at 1×10^4 cells/mL, then place it in a 37° C., 5% CO2 incubator.
(§7) a) The test compound (20 mM stock solution) was diluted to 200uM with 100% DMSO as starting concentration then 3-fold serial diluted with “9+0” concentrations. in a 96-well dilution plate (Cat # P-05525, Labcyte);
(§8) b) The above compound solution was diluted 1:20 times with culture medium to prepare a 10 fold working solution;
(§9) a) Take cells in log phase growth, centrifuge at 1000 rpm for 5 min, then resuspend the cells with culture medium, then count cells;
(§10) b) Cells were seeded to 96-well cell culture plate with density at 2000 cells/well;
(§11) a) Compounds prepared at step 2 were added to cell plate with 15 μL per well, the final concentrations were 1000,333, 111.1, 37,12.3, 4.1, 1.4, 0.5, 0.2 and 0 nM, and the final concentration of DMSO was 0.5%. The blank control well was a culture medium (0.5% DMSO);
(§12) b) The cells were incubated for an additional 72 h in the incubator.
(§13) a) Remove the 96-well cell culture plate and add 50 μl of CTG reagent (CellTiter Glo kit, promega, Cat # G7573).
(§14) b) Plate was shaked for 2 min and then let it cool for 10 min at room temperature.
(§15) c) The Luminescence signal value was read using a PerkinElmer reader. Experimental data analysis
(§16) Data were analyzed using GraphPad Prism 6.0 software to obtain a fitted curve of compound activity.
(§17) Fit the Compound IC50 from non-linear regression equation:
(§18) Y=Bottom+(Top-Bottom)/(1+10((LogIC50-X)×Hill Slope));
(§19) X: The log of the concentration of the compound; Y: Luminescence value.
(§20) The cells proliferation assay results are expressed with IC50, shown as Table 2.

Ba/F3-L858R/T790M/C797S = Ba/F3-L858R/T790M/C797S (Homo sapiens, UniProt P00533, T790M/C797S/L858R, cells depend on it); experiment: Ba/F3-L858R/T790M/C797S cells proliferation assay (CellTiter Glo); format: cell-based; details: cell proliferation, 72 h, read-out: Ba/F3-L858R/T790M/C797S IC50
Sequence of Ba/F3-L858R/T790M/C797S (P00533 whole entry T790M/C797S/L858R): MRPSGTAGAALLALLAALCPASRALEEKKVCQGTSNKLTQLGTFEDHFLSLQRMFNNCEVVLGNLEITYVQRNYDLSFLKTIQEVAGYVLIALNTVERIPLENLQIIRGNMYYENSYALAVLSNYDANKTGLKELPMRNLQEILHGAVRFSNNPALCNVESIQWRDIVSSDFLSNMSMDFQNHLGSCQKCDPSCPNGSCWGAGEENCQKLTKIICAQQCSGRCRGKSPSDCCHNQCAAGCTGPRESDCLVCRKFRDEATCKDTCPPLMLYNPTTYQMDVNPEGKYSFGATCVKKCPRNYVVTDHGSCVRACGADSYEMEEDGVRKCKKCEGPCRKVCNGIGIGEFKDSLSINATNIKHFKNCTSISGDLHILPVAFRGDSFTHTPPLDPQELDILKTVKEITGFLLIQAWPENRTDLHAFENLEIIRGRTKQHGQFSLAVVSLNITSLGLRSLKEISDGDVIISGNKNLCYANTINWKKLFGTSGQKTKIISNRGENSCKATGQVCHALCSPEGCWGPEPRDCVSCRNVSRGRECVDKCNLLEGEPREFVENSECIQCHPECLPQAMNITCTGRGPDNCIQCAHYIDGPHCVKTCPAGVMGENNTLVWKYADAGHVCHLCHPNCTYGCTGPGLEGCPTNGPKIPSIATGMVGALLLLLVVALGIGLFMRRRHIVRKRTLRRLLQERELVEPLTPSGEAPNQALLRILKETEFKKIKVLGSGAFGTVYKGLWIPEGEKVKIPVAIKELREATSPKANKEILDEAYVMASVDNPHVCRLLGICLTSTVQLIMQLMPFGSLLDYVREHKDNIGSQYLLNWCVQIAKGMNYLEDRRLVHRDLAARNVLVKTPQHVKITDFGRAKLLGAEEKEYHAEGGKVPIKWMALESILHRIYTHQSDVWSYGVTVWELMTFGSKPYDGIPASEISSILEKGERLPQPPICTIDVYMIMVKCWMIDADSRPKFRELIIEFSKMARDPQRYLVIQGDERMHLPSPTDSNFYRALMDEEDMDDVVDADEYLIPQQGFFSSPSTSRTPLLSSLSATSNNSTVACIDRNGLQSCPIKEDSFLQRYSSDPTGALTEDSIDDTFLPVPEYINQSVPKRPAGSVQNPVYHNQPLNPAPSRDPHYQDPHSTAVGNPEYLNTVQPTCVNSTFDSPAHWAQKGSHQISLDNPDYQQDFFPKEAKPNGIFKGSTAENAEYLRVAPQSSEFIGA
Protocol: as §1, §2, §3, §4, §5, §6, §7, §8, §9, §10, §11, §12, §13, §14, §15, §16, §17, §18, §19, §20

A431 (WT) = experiment: A431 cells proliferation assay (CellTiter Glo); format: cell-based; details: Homo sapiens, A-431; cell proliferation, 72 h
Protocol: Test 4 A431 Cells Proliferation Assay
DMEM and 10% FBS and 1% PS.
as §5, §2, §3, §4, §6
a) The test compound (20 mM stock solution) was diluted to 2 mM with 100% DMSO as starting concentration then 3-fold serial diluted with “9+0” concentrations. in a 96-well dilution plate (Cat # P-05525, Labcyte);
b) The above compound solution was diluted 1:40 times with culture medium to prepare a 5 fold working solution;
as §9
b) Cells were seeded to 96-well cell culture plate with density at 5000 cells/well;
a) Compounds prepared at step 2 were added to cell plate with 40 μL per well, the final concentrations were 10000, 3333,1111.1, 370.4, 123.5, 41.2, 13.7, 4.6, 1.5 and 0 nM, and the final concentration of DMSO was 0.5%. The blank control well was a culture medium (0.5% DMSO);
as §12
a) Remove the 96-well cell culture plate and add 60 μl of CTG reagent (CellTiter Glo kit, promega, Cat # G7573).
as §14
c) The Luminescence signal value was read using a PerkinElmer reader.
Experimental Data Analysis
as §16, §17
Y=Bottom+(Top-Bottom)/(1+10((LogIC50-X)×HillSlope));
as §19
The cells proliferation assay results are expressed with IC50, shown as Table 3.

[1] = Pharmacokinetic assay, oral administration; format: in vivo; details: rat, male SD rats, p.o. 5 mg/kg, plasma, formulation differs per row
Protocol: Test 5 Pharmacokinetic Assay
Male SD rats, oral administration (intragastric administration), 3 in each group. Animals administered by gavage were fasted overnight before the experiment, and the fasting time was from at least 12 hours before administration to 4 hours after administration. The blood was collected using the orbital vein. Time of blood collection by oral administration: 15 min, 30 min, 1 h, 2 h, 4 h, 7 h, 24 h. The blood collection volume was 300 uL, and after anticoagulation with 2.0% EDTA, the blood was centrifuged at 4000 rpm for 5 min, and the blood plasma was taken for about 100 uL, and placed in −20° C. for examination. The plasma sample was analyzed using liquid chromatography tandem mass spectrometry (LC-MS/MS). Plasma concentration-time data for individual animals were analyzed using WinNonlin (V4.1, Pharsight) software with a non-compartmental model and the pharmacokinetic parameters of the test compounds were calculated.

SMILES | IC50 (EGFR L858R/T790M/C797S) | GI50 (Ba/F3-Del19/T790M/C797S; class symbols) | GI50 (Ba/F3-L858R/T790M/C797S; class symbols) | GI50 (Ba/F3-Del19/T790M/C797S; numeric values) | GI50 (Ba/F3-L858R/T790M/C797S; numeric values) | IC50 (A431 (WT)) | AUC(0-t) [1] | Cmax [1] | Tmax [1] | half-life [1]
CP(C)(=O)c1ccccc1Nc1nc(Nc2ccc(N3CCC4(CC3)CC(N)C4)c(C(F)(F)F)c2)ncc1Cl [Example 18, (2-((2-((4-(2-amino-7-azaspiro[3.5]nonan-7-yl)-3-(trifluoromethyl)phenyl)amino)-5-chloropyrimidin-4-yl)amino)phenyl)dimethylphosphine oxide] | 16 nM | 10 to 50 nM | 10 to 50 nM |  |  |  |  |  |  | 
CN(C)C1CCC2(CC1)CN(c1ccc(Nc3ncc(Cl)c(Nc4ccccc4P(C)(C)=O)n3)cc1Cl)C2 [Example 10, (2-((5-chloro-2-((3-chloro-4-(7-(dimethylamino)-2-azaspiro[3.5]nonan-2-yl)phenyl)amino)pyrimidin-4-yl)amino)phenyl)dimethylphosphine oxide] | 0.7 nM |  |  | 10.2 nM | 24.7 nM | 41.6 nM | 443 ng·h/mL | 35.1 ng/mL | 4 h | 9.06 h
CNC1CC2(CCN(c3ccc(Nc4ncc(Cl)c(Nc5ccccc5P(C)(C)=O)n4)cc3Cl)CC2)C1 [Example 20, (2-((5-chloro-2-((3-chloro-4-(2-(methylamino)-7-azaspiro[3.5]nonan-7-yl)phenyl)amino)pyrimidin-4-yl)amino)phenyl)dimethylphosphine oxide] | 2.3 nM | 10 to 50 nM | 10 to 50 nM |  |  |  |  |  |  | 
CP(C)(=O)c1ccccc1Nc1nc(Nc2ccc(N3CCC4(CC3)CC(N)C4)cc2)ncc1Cl [Example 16, (2-((2-((4-(2-amino-7-azaspiro[3.5]nonan-7-yl)phenyl)amino)-5-chloropyrimidin-4-yl)amino)phenyl)dimethylphosphine oxide hydrochloride] |  |  |  | 8 nM | 6.9 nM |  |  |  |  | 
CN(C)C1CCC2(CC1)CN(c1ccc(Nc3ncc(Cl)c(Nc4ccccc4P(C)(C)=O)n3)cc1C1CC1)C2 [Example 5, (2-((5-chloro-2-((3-cyclopropyl-4-(7-(dimethylamino)-2-azaspiro[3.5]nonan-2-yl)phenyl)amino)pyrimidin-4-yl)amino)phenyl)dimethylphosphine oxide] | 1.5 nM | 10 to 50 nM | 10 to 50 nM |  |  |  |  |  |  | 
CN(C)C1CC2(CCN(c3ccc(Nc4nccc(Nc5ccccc5P(C)(C)=O)n4)cc3Cl)CC2)C1 [Example 7, (2-((2-((3-chloro-4-(2-(dimethylamino)-7-azaspiro[3.5]nonan-7-yl)phenyl)amino)pyrimidin-4-yl)amino)phenyl)dimethylphosphine oxide] | 7.8 nM | > 50 nM | > 50 nM |  |  | 341 nM |  |  |  | 
CP(C)(=O)c1ccccc1Nc1nc(Nc2ccc(N3CC4(CCC(N)CC4)C3)c(Cl)c2)ncc1Cl [Example 11, (2-((2-((4-(7-amino-2-azaspiro[3.5]nonan-2-yl)-3-chlorophenyl)amino)-5-chloropyrimidin-4-yl)amino)phenyl)dimethylphosphine oxide] | 2.6 nM |  | 10 to 50 nM | 26.3 nM |  |  |  |  |  | 
CP(C)(=O)c1ccccc1Nc1ccnc(Nc2ccc(N3CCC4(CC3)CC(N)C4)c(Cl)c2)n1 [Example 9, (2-((2-((4-(2-amino-7-azaspiro[3.5]nonan-7-yl)-3-chlorophenyl)amino)pyrimidin-4-yl)amino)phenyl)dimethylphosphine oxide] | 11 nM | > 50 nM | > 50 nM |  |  |  |  |  |  | 
CCN1CC2(C1)CN(c1ccc(Nc3ncc(Cl)c(Nc4ccccc4P(C)(C)=O)n3)cc1C)C2 [Comparative compound B, (2-((5-chloro-2-((4-(6-ethyl-2,6-diazaspiro[3.3]heptan-2-yl)-3-methylphenyl)amino)pyrimidin-4-yl)amino)phenyl)dimethylphosphine oxide, reference compound] |  |  |  |  |  |  | 202 ng·h/mL | 67.2 ng/mL | 2.75 h | 4.09 h
CN(C)C1CC2(CCN(c3ccc(Nc4ncc(Cl)c(Nc5ccccc5P(C)(C)=O)n4)cc3F)CC2)C1 [Example 30, (2-((5-chloro-2-((4-(2-(dimethylamino)-7-azaspiro[3.5]nonan-7-yl)-3-fluorophenyl)amino)pyrimidin-4-yl)amino)phenyl)dimethylphosphine oxide] | 1.1 nM | ≤ 10 nM | 10 to 50 nM |  |  | 30 nM |  |  |  | 
Cc1cc(Nc2ncc(Cl)c(Nc3ccccc3P(C)(C)=O)n2)ccc1N1CC2(CCC(N)CC2)C1 [Example 3, (2-((2-((4-(7-amino-2-azaspiro[3.5]nonan-2-yl)-3-methylphenyl)amino)-5-chloropyrimidin-4-yl)amino)phenyl)dimethylphosphine oxide] | 2.8 nM | 10 to 50 nM | 10 to 50 nM |  |  |  |  |  |  | 
